Measured values from paper PMC6364417, “Kinase inhibitor library screening identifies synergistic drug combinations effective in sensitive and resistant melanoma cells” (Journal of Experimental & Clinical Cancer Research : CR, 2019).

Columns and labels:
Test in all cases: Kinase inhibitor library screening, PrestoBlue cell viability, 1 or 10 μM, 72 h
IGR37 cells (parental) = system: IGR37 cells (parental)
Description: (§1) After 72 h of treatment, cell viability was assessed using the PrestoBlue Cell Viability Reagent (ThermoFisher Scientific). Measurements were performed with the CLARIOstar Monochromator microplate reader (BMG Labtech).
(§2) Kinase inhibitor library screening. […] Each cell line was treated in its sensitive form (parental), and also as 2 resistant derivatives, which were made resistant to either Vemurafenib (XP) or Dabrafenib (GP). Drugs were added at 2 different concentrations, 1 and 10 μM, for 72 h and cell viability was assessed using the PrestoBlue Cell Viability assay. Results are depicted as % viability compared to untreated cells. Each cell line was analyzed at least in duplicate. […] (XLSX 95 kb)

[1] = system: A375-GP cells (Dabrafenib-resistant)
Description: as §1, §2

A375 cells (parental) = settings: for cell viability (kinase inhibitor library screening): in %
Description: as §1, §2

501Mel cells (parental) = system: 501Mel cells (parental)
Description: as §1, §2

[2] = system: 501Mel-GP cells (Dabrafenib-resistant)
Description: as §1, §2

[3] = system: 501Mel-XP cells (Vemurafenib-resistant)
Description: as §1, §2

[4] = system: A375-XP cells (Vemurafenib-resistant); settings: for cell viability (kinase inhibitor library screening): in %
Description: as §1, §2

[5] = system: IGR37-GP cells (Dabrafenib-resistant)
Description: as §1, §2

[6] = system: IGR37-XP cells (Vemurafenib-resistant)
Description: as §1, §2

For `COC(=O)c1ccc2c(c1)NC(=O)/C2=C(\Nc1ccc(N(C)C(=O)CN2CCN(C)CC2)cc1)c1ccccc1` [BIBF1120 (Vargatef)], which “cell viability (kinase inhibitor library screening)” value (IGR37 cells (parental); IGR37 Parental, 10μΜ, in %) is on record?
Its value is 0.645.

And the “cell viability (kinase inhibitor library screening)” value ([1]; A375 GP, 10μΜ, in %)?
The value was 1.1.

And the “cell viability (kinase inhibitor library screening)” value (A375 cells (parental); A375 Parental, 1μΜ)?
Its value is 104.6.

What about the “cell viability (kinase inhibitor library screening)” value (A375 cells (parental); A375 Parental, 10μΜ) of the same molecule?
Its value is 2.3.

And the “cell viability (kinase inhibitor library screening)” value (501Mel cells (parental); 501Mel Parental, 1μΜ, in %)?
The value was 103.8.

What about the “cell viability (kinase inhibitor library screening)” value (501Mel cells (parental); 501Mel Parental, 10μΜ, in %) of the same molecule?
The value was 0.6.

What about the “cell viability (kinase inhibitor library screening)” value ([2]; 501Mel GP, 1μΜ, in %) of the same molecule?
Its value is 90.5.

And the “cell viability (kinase inhibitor library screening)” value ([2]; 501Mel GP, 10μΜ, in %)?
Its value is -0.1.

And the “cell viability (kinase inhibitor library screening)” value ([3]; 501Mel XP, 1μΜ, in %)?
The value was 90.7.

What about the “cell viability (kinase inhibitor library screening)” value ([3]; 501Mel XP, 10μΜ, in %) of the same molecule?
The value was -0.28.

What about the “cell viability (kinase inhibitor library screening)” value ([4]; A375 XP, 1μΜ) of the same molecule?
Its value is 103.7.

What about the “cell viability (kinase inhibitor library screening)” value ([4]; A375 XP, 10μΜ) of the same molecule?
Its value is 1.7.

And the “cell viability (kinase inhibitor library screening)” value ([5]; IGR37 GP, 1μΜ, in %)?
The value was 97.0.

And the “cell viability (kinase inhibitor library screening)” value ([5]; IGR37 GP, 10μΜ, in %)?
Its value is 1.4.

And the “cell viability (kinase inhibitor library screening)” value ([6]; IGR37 XP, 1μΜ, in %)?
Its value is 100.3.

And the “cell viability (kinase inhibitor library screening)” value ([6]; IGR37 XP, 10μΜ, in %)?
Its value is 1.9.

How did the “Cell viability in kinase inhibitor library screening, IGR37 Parental, 10μΜ” value (IGR37 cells (parental); IGR37 Parental, 10μΜ, 72 h, in %) turn out when `Cc1ccc(-n2nc(C(C)(C)C)cc2NC(=O)Nc2ccc(OCCN3CCOCC3)c3ccccc23)cc1` [BIRB 796 (Doramapimod)] was run?
The value was 97.2.

And the “Cell viability in kinase inhibitor library screening, A375 GP, 1μΜ” value ([1]; A375 GP, 1μΜ, 72 h)?
Its value is 103.9.

And the “Cell viability in kinase inhibitor library screening, A375 GP, 10μΜ” value ([1]; A375 GP, 10μΜ, 72 h)?
The value was 76.2.

And the “Cell viability in kinase inhibitor library screening, A375 Parental, 10μΜ” value (A375 cells (parental); A375 Parental, 10μΜ, 72 h)?
The value was 86.4.

What about the “Cell viability in kinase inhibitor library screening, A375 Parental, 1μΜ” value (A375 cells (parental); A375 Parental, 1μΜ, 72 h) of the same molecule?
Its value is 99.9.

What about the “Cell viability in kinase inhibitor library screening, 501Mel Parental, 1μΜ” value (501Mel cells (parental); 501Mel Parental, 1μΜ, 72 h, in %) of the same molecule?
The value was 96.5.

And the “Cell viability in kinase inhibitor library screening, 501Mel Parental, 10μΜ” value (501Mel cells (parental); 501Mel Parental, 10μΜ, 72 h, in %)?
Its value is 84.9.

And the “Cell viability in kinase inhibitor library screening, 501Mel GP, 1μΜ” value ([2]; 501Mel GP, 1μΜ, 72 h, in %)?
Its value is 105.5.

What about the “Cell viability in kinase inhibitor library screening, 501Mel GP, 10μΜ” value ([2]; 501Mel GP, 10μΜ, 72 h, in %) of the same molecule?
Its value is 94.6.

And the “Cell viability in kinase inhibitor library screening, 501Mel XP, 1μΜ” value ([3]; 501Mel XP, 1μΜ, 72 h, in %)?
The value was 98.8.

What about the “Cell viability in kinase inhibitor library screening, 501Mel XP, 10μΜ” value ([3]; 501Mel XP, 10μΜ, 72 h, in %) of the same molecule?
The value was 86.9.

And the “Cell viability in kinase inhibitor library screening, A375 XP, 10μΜ” value ([4]; A375 XP, 10μΜ, 72 h)?
The value was 85.3.

And the Cell viability in kinase inhibitor library screening, IGR37 GP, 10μΜ ([5]; IGR37 GP, 10μΜ, 72 h)?
Its Cell viability in kinase inhibitor library screening, IGR37 GP, 10μΜ is 78.5%.

And the “Cell viability in kinase inhibitor library screening, IGR37 GP, 1μΜ” value ([5]; IGR37 GP, 1μΜ, 72 h, in %)?
Its value is 89.9.

And the Cell viability in kinase inhibitor library screening, IGR37 XP, 10μΜ ([6]; IGR37 XP, 10μΜ, 72 h)?
The Cell viability in kinase inhibitor library screening, IGR37 XP, 10μΜ was 71.3%.

What about the “Cell viability in kinase inhibitor library screening, IGR37 XP, 1μΜ” value ([6]; IGR37 XP, 1μΜ, 72 h, in %) of the same molecule?
The value was 94.7.

What does the source list for `CN(C)Cc1cccc(N/C(=C2\C(=O)Nc3cc(C(N)=O)ccc32)c2ccccc2)c1` [BIX 02188]?
viability at 1 µM (IGR37 cells (parental); Homo sapiens, IGR-37, 72 h, read-out: cell viability, IGR37 Parental, 1μΜ): 99.2%; viability at 10 µM (IGR37 cells (parental); Homo sapiens, IGR-37, 72 h, read-out: cell viability, IGR37 Parental, 10μΜ): 109%; viability at 1 µM ([1]; Homo sapiens, A-375, 72 h, read-out: cell viability, A375 GP, 1μΜ): 103%; viability at 10 µM ([1]; Homo sapiens, A-375, 72 h, read-out: cell viability, A375 GP, 10μΜ): 85.4%; viability at 1 µM (A375 cells (parental); Homo sapiens, A-375, 72 h, read-out: cell viability, A375 Parental, 1μΜ): 103%; viability at 10 µM (A375 cells (parental); Homo sapiens, A-375, 72 h, read-out: cell viability, A375 Parental, 10μΜ): 95.5%; viability at 1 µM (501Mel cells (parental); Homo sapiens, 72 h, read-out: cell viability, 501Mel Parental, 1μΜ): 95.5%; viability at 10 µM (501Mel cells (parental); Homo sapiens, 72 h, read-out: cell viability, 501Mel Parental, 10μΜ): 91.7%; viability at 1 µM ([2]; Homo sapiens, 72 h, read-out: cell viability, 501Mel GP, 1μΜ): 104%; viability at 10 µM ([2]; Homo sapiens, 72 h, read-out: cell viability, 501Mel GP, 10μΜ): 96.3%; viability at 1 µM ([3]; Homo sapiens, 72 h, read-out: cell viability, 501Mel XP, 1μΜ): 96.7%; viability at 10 µM ([3]; Homo sapiens, 72 h, read-out: cell viability, 501Mel XP, 10μΜ): 86.6%; viability at 1 µM ([4]; Homo sapiens, A-375, 72 h, read-out: cell viability, A375 XP, 1μΜ): 103%; viability at 10 µM ([4]; Homo sapiens, A-375, 72 h, read-out: cell viability, A375 XP, 10μΜ): 98.5%; viability at 1 µM ([5]; Homo sapiens, IGR-37, 72 h, read-out: cell viability, IGR37 GP, 1μΜ): 91%; viability at 10 µM ([5]; Homo sapiens, IGR-37, 72 h, read-out: cell viability, IGR37 GP, 10μΜ): 93.3%; viability at 1 µM ([6]; Homo sapiens, IGR-37, 72 h, read-out: cell viability, IGR37 XP, 1μΜ): 107%; viability at 10 µM ([6]; Homo sapiens, IGR-37, 72 h, read-out: cell viability, IGR37 XP, 10μΜ): 71.5%
